According to BindingDB's records for doi:10.1016/0922-4106(95)90043-8 (Uppsala, 1995):
Blank lines part the entries; values can stand above or below the molecule they belong to. Non-standard residues stand in square brackets, D forms with d. Residues, ends and D or L forms follow the SMILES beside them. Met(O2) = CS(=O)(=O)CC[C@H](N)C(=O)O

Legend:
Melanocortin receptor 3 = Melanocortin receptor 3 (Homo sapiens, UniProt P41968)
Melanocortin receptor 5 = Melanocortin receptor 5 (Homo sapiens, UniProt P33032)
Melanocortin receptor 5, sequence (P33032 whole entry): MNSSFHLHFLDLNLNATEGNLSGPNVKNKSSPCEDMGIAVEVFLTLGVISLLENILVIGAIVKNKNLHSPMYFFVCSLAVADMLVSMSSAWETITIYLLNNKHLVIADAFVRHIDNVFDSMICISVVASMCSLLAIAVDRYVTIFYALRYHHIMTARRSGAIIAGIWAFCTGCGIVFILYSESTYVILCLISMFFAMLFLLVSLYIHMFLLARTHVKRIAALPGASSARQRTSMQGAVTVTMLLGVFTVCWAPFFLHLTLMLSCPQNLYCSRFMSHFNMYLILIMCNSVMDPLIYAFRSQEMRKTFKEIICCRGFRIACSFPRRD

[1] = target: Melanocyte-stimulating hormone receptor (Homo sapiens, UniProt Q01726)
Melanocyte-stimulating hormone receptor, sequence (Q01726 whole entry): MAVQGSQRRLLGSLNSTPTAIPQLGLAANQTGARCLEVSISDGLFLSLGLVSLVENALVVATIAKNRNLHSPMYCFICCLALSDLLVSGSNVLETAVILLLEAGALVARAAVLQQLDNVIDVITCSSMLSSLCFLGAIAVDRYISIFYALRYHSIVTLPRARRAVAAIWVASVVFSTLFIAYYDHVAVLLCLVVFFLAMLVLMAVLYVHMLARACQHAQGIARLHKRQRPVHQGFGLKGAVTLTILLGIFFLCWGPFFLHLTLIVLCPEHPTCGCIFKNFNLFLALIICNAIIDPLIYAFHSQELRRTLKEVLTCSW

Melanocortin receptor 3, sequence (P41968 whole entry): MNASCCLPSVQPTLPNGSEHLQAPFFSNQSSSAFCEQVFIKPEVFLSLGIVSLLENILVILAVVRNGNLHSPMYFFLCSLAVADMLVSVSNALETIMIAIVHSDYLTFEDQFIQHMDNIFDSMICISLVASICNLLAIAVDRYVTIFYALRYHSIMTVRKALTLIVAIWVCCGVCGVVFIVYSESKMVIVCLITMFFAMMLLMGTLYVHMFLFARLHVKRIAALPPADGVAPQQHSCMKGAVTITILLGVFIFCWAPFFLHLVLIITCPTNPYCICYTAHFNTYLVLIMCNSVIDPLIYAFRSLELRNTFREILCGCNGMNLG

Ki (Melanocortin receptor 3): 784 nM
Ki (Melanocortin receptor 5): > 10000 nM
Ki [1]: 106 nM
Molecule: CSCC[C@H](N)C(=O)N[C@@H](CCC(=O)O)C(=O)N[C@@H](Cc1cnc[nH]1)C(=O)N[C@@H](Cc1ccccc1)C(=O)N[C@@H](CCCNC(=N)N)C(=O)N[C@@H](Cc1c[nH]c2ccccc12)C(=O)NCC(N)=O [NSC_123787]

Ki (Melanocortin receptor 3): > 10000 nM
Ki (Melanocortin receptor 5): > 10000 nM
Ki [1]: > 10000 nM
Molecule: H-SMEVRGW-OH [delta MSH]

Second part, the molecule before the results:

Molecule: CSCC[C@H](NC(=O)[C@H](CO)NC(=O)[C@H](Cc1ccc(O)cc1)NC(=O)[C@@H](N)CO)C(=O)N[C@@H](CCC(=O)O)C(=O)N[C@@H](Cc1cnc[nH]1)C(=O)N[C@@H](Cc1ccccc1)C(=O)N[C@@H](CCCNC(=N)N)C(=O)N[C@@H](Cc1c[nH]c2ccccc12)C(=O)NCC(N)=O [ACTH-(1-10)]
Ki (Melanocortin receptor 3): 145 nM
Ki (Melanocortin receptor 5): > 10000 nM

Molecule: H-SYSMEHFRWGKPVGKKRRPVKVYPNGAEDESAEAFPLEF-OH [ACTH]
Ki (Melanocortin receptor 3): 86.9 nM
Ki (Melanocortin receptor 5): > 10000 nM
Ki [1]: 2.5 nM

Molecule: H-YVMGHFRWDRFGRRNGSSSSGVGGAAQ-OH [Gamma3-MSH]
Ki (Melanocortin receptor 3): 10.9 nM
Ki (Melanocortin receptor 5): > 10000 nM
Ki [1]: 1.39 nM

Molecule: CSCC[C@H](NC(=O)[C@@H](NC(=O)[C@@H](N)Cc1ccc(O)cc1)C(C)C)C(=O)NCC(=O)N[C@@H](Cc1cnc[nH]1)C(=O)N[C@@H](Cc1ccccc1)C(=O)N[C@@H](CCCN=C(N)N)C(=O)N[C@@H](Cc1c[nH]c2ccccc12)C(=O)N[C@@H](CC(=O)O)C(=O)N[C@@H](CCCN=C(N)N)C(=O)N[C@@H](Cc1ccccc1)C(N)=O [Gamma1-MSH]
Ki [1]: 2.68 nM

Molecule: CS(=O)(=O)CC[C@H](N)C(=O)N[C@@H](CCC(=O)O)C(=O)N[C@@H](Cc1c[nH]cn1)C(=O)N[C@@H](Cc1ccccc1)C(=O)N[C@H](CCCCN)C(=O)N[C@@H](Cc1ccccc1)C(=O)O [CAS_50913-82-1] (H-[Met(O2)]EHF[dK]F-OH)
Ki (Melanocortin receptor 3): > 10000 nM
Ki (Melanocortin receptor 5): > 10000 nM
Ki [1]: > 10000 nM
